The values below come from US7655664B2, “Hydantoin derivatives as metalloproteinase inhibitors” (AstraZeneca AB, priority 2004, dated 2010).

What all share (format): biochemical
The target in assay [1] is T1, Recombinant human MMP12 catalytic domain (Homo sapiens, UniProt P39900).
T1 construct: Recombinant human MMP12 catalytic domain; made in house
Put plainly: MMP12 isolated enzyme assay (fluorogenic substrate). Particulars: 60 min, room temperature, read-out: hMMP12 IC50. As for the experimental part: Recombinant human MMP12 catalytic domain may be expressed and purified as described by Parkar A. A. et al, (2000), Protein Expression and Purification, 20, 152. The purified enzyme can be used to monitor inhibitors of activity as follows: MMP12 (50 ng/ml final concentration) is incubated for 60 minutes at room temperature with the synthetic substrate Mca-Pro-Cha-Gly-Nva-His-Ala-Dpa-NH2 (10 μM) in assay buffer (0.1M “Tris-HCl” (trade mark) buffer, pH 7.3 containing 0.1M NaCl, 20 mM CaCl2, 0.020 mM ZnCl and 0.05% (w/v) “Brij 35” (trade mark) detergent) in the presence (10 concentrations) or absence of inhibitors. Activity is determined by measuring the fluorescence at λex 320 nm and λem 405 nm. Percent inhibition is calculated as follows: % Inhibition is equal to the [Fluorescenceplus inhibitor−Fluorescencebackground] divided by the [Fluorescenceminus inhibitor−Fluorescencebackground]. MMP8

The target in assay [2] is T2, Recombinant human MMP9 catalytic domain (Homo sapiens, UniProt P14780).
T2 sequence (P14780 with tags, fused parts or gaps DEL216-390 limits assumed): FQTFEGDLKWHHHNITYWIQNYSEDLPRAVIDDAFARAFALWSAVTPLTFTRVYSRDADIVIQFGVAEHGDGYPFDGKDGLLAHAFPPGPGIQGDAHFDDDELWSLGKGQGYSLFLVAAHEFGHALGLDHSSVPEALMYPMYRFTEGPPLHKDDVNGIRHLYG
Put plainly: MMP9 isolated enzyme assay (fluorogenic substrate). Particulars: 30 min, RT, read-out: hMMP9 IC50. As for the experimental part:
Recombinant human MMP9 catalytic domain was expressed and then purified by Zn chelate column chromatography followed by hydroxamate affinity column chromatography. The enzyme can be used to monitor inhibitors of activity as follows: MMP9 (5 ng/ml final concentration) is incubated for 30 minutes at RT with the synthetic substrate Mca-Pro-Cha-Gly-Nva-His-Ala-Dpa-NH2 (5 μM) in assay buffer (0.1M “Tris-HCl” (trade mark) buffer, pH 7.3 containing 0.1M NaCl, 20 mM CaCl2, 0.020 mM ZnCl and 0.05% (w/v) “Brij 35” (trade mark) detergent) in the presence (10 concentrations) or absence of inhibitors. Activity is determined by measuring the fluorescence at […]. Percent inhibition is calculated as follows: % Inhibition is equal to the [Fluorescenceplus inhibitor−Fluorescencebackground] divided by the [Fluorescenceminus inhibitor−Fluorescencebackground]. MMP14

The target in assay [3] is T3, hMMP8 (APMA-activated pro-MMP8) (Homo sapiens, UniProt P22894).
T3 construct: purchased Calbiochem
T3 sequence (P22894 101-467): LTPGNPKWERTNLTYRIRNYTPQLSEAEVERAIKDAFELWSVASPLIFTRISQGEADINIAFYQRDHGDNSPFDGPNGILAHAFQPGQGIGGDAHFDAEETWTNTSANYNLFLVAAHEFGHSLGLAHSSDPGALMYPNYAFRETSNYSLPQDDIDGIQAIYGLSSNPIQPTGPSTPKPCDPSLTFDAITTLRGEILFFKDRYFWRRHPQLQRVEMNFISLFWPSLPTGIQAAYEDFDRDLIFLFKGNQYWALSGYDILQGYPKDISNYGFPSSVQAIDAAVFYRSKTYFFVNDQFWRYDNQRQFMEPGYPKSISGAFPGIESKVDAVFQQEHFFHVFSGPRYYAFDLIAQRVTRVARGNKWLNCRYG
In words: MMP8 isolated enzyme assay (fluorogenic substrate). Particulars: 90 min, 35° C. As for the experimental part: Purified pro-MMP8 is purchased from Calbiochem. The enzyme (at 10 μg/ml) is activated by p-amino-phenyl-mercuric acetate (APMA) at 1 mM for 2.5 h, 35° C. The activated enzyme can be used to monitor inhibitors of activity as follows: MMP8 (200 ng/ml final concentration) is incubated for 90 minutes at 35° C. (80% H2O) with the synthetic substrate Mca-Pro-Cha-Gly-Nva-His-Ala-Dpa-NH2 (12.5 μM) in assay buffer (0.1 M “Tris-HCl” (trade mark) buffer, pH 7.5 containing 0.1M NaCl, 30 mM CaCl2, 0.040 mM ZnCl and 0.05% (w/v) “Brij 35” (trade mark) detergent) in the presence (10 concentrations) or absence of inhibitors. Activity is determined by measuring the fluorescence at λex 320 nm and λem 405 nm. Percent inhibition is calculated as follows: % Inhibition is equal to the [Fluorescenceplus inhibitor−Fluorescencebackground] divided by the [Fluorescenceminus inhibitor−Fluorescencebackground]. MMP9

The target in assay [4] is T4, Recombinant human MMP14 catalytic domain (Homo sapiens, UniProt P50281).
T4 construct: Recombinant human MMP14 catalytic domain; made in house
Put plainly: MMP14 isolated enzyme assay (fluorogenic substrate). The settings on record: 60 min, room temperature, read-out: hMMP14 IC50. The procedure: Recombinant human MMP14 catalytic domain may be expressed and purified as described by Parkar A. A. et al, (2000), Protein Expression and Purification, 20, 152. The purified enzyme can be used to monitor inhibitors of activity as follows: MMP14 (10 ng/ml final concentration) is incubated for 60 minutes at room temperature with the synthetic substrate Mca-Pro-Cha-Gly-Nva-His-Ala-Dpa-NH2 (10 μM) in assay buffer (0.1M “Tris-HCl” (trade mark) buffer, pH 7.5 containing 0.1M NaCl, 20 mM CaCl2, 0.020 mM ZnCl and 0.05% (w/v) “Brij 35” (trade mark) detergent) in the presence (5 concentrations) or absence of inhibitors. Activity is determined by measuring the fluorescence at λex 320 nm and λem 405 nm. Percent inhibition is calculated as follows: % Inhibition is equal to the [Fluorescenceplus inhibitor−Fluorescencebackground] divided by the [Fluorescenceminus inhibitor−Fluorescencebackground].

Assay [5] deals with T5, Recombinant human MMP19 catalytic domain (Homo sapiens, UniProt Q99542).
T5 construct: Recombinant human MMP19 catalytic domain; made in house
T5 sequence (Q99542 98-256 limits assumed): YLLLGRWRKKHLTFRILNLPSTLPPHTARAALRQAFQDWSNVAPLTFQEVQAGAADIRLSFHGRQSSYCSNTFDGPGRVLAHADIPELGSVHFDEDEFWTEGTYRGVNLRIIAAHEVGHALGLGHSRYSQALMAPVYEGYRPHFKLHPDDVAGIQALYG
Put plainly: MMP19 isolated enzyme assay (fluorogenic substrate). The settings on record: 120 min, 35° C., read-out: hMMP19 IC50. As for the experimental part:
Recombinant human MMP19 catalytic domain may be expressed and purified as described by Parkar A. A. et al, (2000), Protein Expression and Purification, 20:152. The purified enzyme can be used to monitor inhibitors of activity as follows: MMP19 (40 ng/ml final concentration) is incubated for 120 minutes at 35° C. with the synthetic substrate Mca-Pro-Leu-Ala-Nva-Dpa-Ala-Arg-NH2 (5 μM) in assay buffer (0.1M “Tris-HCl” (trade mark) buffer, pH 7.3 containing 0.1M NaCl, 20 mM CaCl2, […] ZnCl and 0.05% (w/v) “Brij 35” (trade mark) detergent) in the presence (5 concentrations) or absence of inhibitors. Activity is determined by measuring the fluorescence at λex 320 nm and λem 405 nm. Percent inhibition is calculated as follows: % Inhibition is equal to the [Fluorescenceplus inhibitor−Fluorescencebackground] divided by the [Fluorescenceminus inhibitor−Fluorescencebackground].

T1 sequence (P39900 106-263 limits assumed): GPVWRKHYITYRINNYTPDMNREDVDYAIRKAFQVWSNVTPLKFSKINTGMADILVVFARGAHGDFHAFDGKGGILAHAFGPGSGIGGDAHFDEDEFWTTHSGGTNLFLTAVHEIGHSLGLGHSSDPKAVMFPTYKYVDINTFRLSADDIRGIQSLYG

Usually IC50 stands for the concentration needed to halve the response being measured. As to `C[C@]1(CS(=O)(=O)N2CCc3cc(-c4ccc(C5CC5)nc4)ncc3C2)NC(=O)NC1=O` [Example 2, (5S)-5-({[6-(6-Cyclopropylpyridin-3-yl)-3,4-dihydro-2,7-naphthyridin-2(1H)-yl]sulfonyl}methyl)-5-methylimidazolidine-2,4-dione], the IC50 in assay [1] is 26.6 nM; in assay [2], 21.5 nM; in assay [3], 2470 nM; in assay [4], > 10000 nM.

Turning to `CC[C@]1(CS(=O)(=O)N2CCc3cc(-c4cnc(C5CC5)nc4)ccc3C2)NC(=O)NC1=O` [Example 5, (5S)-5-({[6-(2-Cyclopropylpyrimidin-5-yl)-3,4-dihydroisoquinolin-2(1H)-yl]sulfonyl}methyl)-5-ethylimidazolidine-2,4-dione], the IC50 worked out at 6.9 nM in assay [1]; 3.8 nM in assay [2]; 1310 nM in assay [3]; 8810 nM in assay [4]; 3760 nM in assay [5].

As for `C[C@]1(CS(=O)(=O)N2CCc3cc(-c4cnc(C5CC5)nc4)ccc3C2)NC(=O)NC1=O` [Example 1, (5S)-5-({[6-(2-Cyclopropylpyrimidin-5-yl)-3,4-dihydroisoquinolin-2(1H)-yl]sulfonyl}methyl)-5-methylimidazolidine-2,4-dione], the 50% inhibitory concentration (IC50) in assay [1] was 8.78 nM; in assay [2], 10.1 nM; in assay [3] it was 3050 nM; in assay [4], > 10000 nM; in assay [5] it was > 10000 nM.
